Holding throughout (format): in vivo
For experiment [1], the system named is Beet Armyworm (Spodoptera exigua, LAPHEG). The experiment in a line: Bioassays on Beet Armyworm (BAW), 128-well diet tray assay. To be noted: Spodoptera exigua. Summed up:
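Second-instar larvae, one to five per well, were placed on artificial diet surface-treated with 50 μg/cm^2 compound in 90:10 acetone-water, eight wells per treatment. Trays were held 5–7 days at 25 °C, 14:10 light-dark. Percent mortality per well was averaged over eight wells.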

Experiment [2] relates to Cabbage Looper (Trichoplusia ni, TRIPNI). In words: Bioassays on Cabbage Looper (CL), 128-well diet tray assay. The following applies: Trichoplusia ni. Summed up: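 Each of eight wells receives artificial diet treated at 50 μg/cm^2 with the test molecule, then one to five second-instar larvae. Incubation runs five to seven days at 25° C with a 14:10 light-dark cycle under vented covers. Mortality is scored per well as a percentage and averaged.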

Experiment [3] has as its system Yellow Fever Mosquito (Aedes aegypti, AEDSAE). The following applies: for YFM rating: Table ABC / ABC-DP rating. How it is done: Certain molecules disclosed in this document were tested against YFM using procedures described in the following paragraph. In the reporting of the results, the “GPA & YFM Rating Table” was used (See Table Section).
Master plates containing 400 μg of a molecule dissolved in 100 μL of dimethyl sulfoxide (DMSO) (equivalent to a 4000 ppm solution) are used. A master plate of assembled molecules contains 15 μL per well. To this plate, 135 μL of a 90:10 water/acetone mixture is added to each well. A robot (Biomek® NXP Laboratory Automation Workstation) is programmed to dispense 15 μL aspirations from the master plate into an empty 96-well shallow plate (“daughter” plate). There are 6 reps (“daughter” plates) created per master. The created “daughter” plates are then immediately infested with YFM larvae.
The day before plates are to be treated, mosquito eggs are placed in Millipore water containing liver powder to begin hatching (4 g into 400 mL). After the “daughter” plates are created using the robot, they are infested with 220 μL of the liver powder/larval mosquito mixture (about 1 day-old larvae). After plates are infested with mosquito larvae, a non-evaporative lid is used to cover the plate to reduce drying. Plates are held at room temperature for 3 days prior to grading. After 3 days, each well is observed and scored based on mortality. The results are indicated in the table entitled “Table ABC: Biological Results” (See Table Section).

Setting [4] is: Table ABC: Biological Results, species BAW, read-out: BAW.
Where [5] appears, read: Table ABC: Biological Results, species CL, read-out: CL.
[6] abbreviates: Table ABC: Biological Results, species YFM.
Where [7] appears, read: Beet Armyworm, Table ABC / ABC-DP rating, read-out: BAW rating.
[8] abbreviates: Cabbage Looper, Table ABC / ABC-DP rating, read-out: CL rating.
Where [9] appears, read: Beet Armyworm, rating class, read-out: BAW.
Where [10] appears, read: Cabbage Looper, rating class, read-out: CL.
[11] abbreviates: Yellow Fever Mosquito, rating class.

The results in this text go back to patent publication US20250228239A1, “MOLECULES HAVING PESTICIDAL UTILITY, AND INTERMEDIATES, COMPOSITIONS, AND PROCESSES, RELATED THERETO” (priority 2024, published 2025).

Like-named read-outs stand apart in the source and are kept apart here.

On to `O=C(Nc1ccc(F)c(NC(=O)C(F)F)c1F)c1cc(NC(=O)[C@H]2[C@H](c3ccc(Cl)c(Cl)c3)C2(Cl)Cl)ccc1Cl` [F1065, 2-Chloro-5-((1R,3R)-2,2-dichloro-3-(3,4-dichlorophenyl)cyclopropane-1-carboxamido)-N-(3-(2,2-difluoroacetamido)-2,4-difluorophenyl)benzamide], for which the pest or weed control at 50 µg/cm2 in experiment [1] (setting [4]) and in experiment [2] (setting [5]) was 50 to 100% throughout. Moreover, the YFM entry in experiment [3] (setting [6]) is reported as “A (80–100)”.

Turning to `CC(C)(C)OC(=O)N(C(=O)OC(C)(C)C)c1c(F)ccc(NC(=O)c2cc(NC(=O)[C@H]3[C@H](c4ccc(F)c(Br)c4)C3(Cl)Cl)ccc2Cl)c1F` [F1776, tert-Butyl N-[3-[[5-[[(1R,3R)-3-(3-bromo-4-fluoro-phenyl)-2,2-dichloro-cyclopropanecarbonyl]amino]-2-chloro-benzoyl]amino]-2,6-difluoro-phenyl]-N-tert-butoxycarbonyl-carbamate], the pest or weed control at 50 µg/cm2 in experiment [1] (setting [7]) and in experiment [2] (setting [8]) was 50 to 100% throughout. Further, the YFM rating result in experiment [3] (Yellow Fever Mosquito) is recorded as “A (80–100)”.

`O=C(Nc1ccc(F)c(NC(=O)C(F)(F)C(F)F)c1F)c1cc(NC(=O)[C@H]2[C@H](c3ccc(F)c(C(F)(F)F)c3)C2(Cl)Cl)ccc1Cl` [F1301, 2-Chloro-5-((1R,3R)-2,2-dichloro-3-(4-fluoro-3-(trifluoromethyl)phenyl)cyclopropane-1-carboxamido)-N-(2,4-difluoro-3-(2,2,3,3-tetrafluoropropanamido)phenyl)benzamide]: the pest or weed control at 50 µg/cm2 in experiment [1] (setting [4]) and in experiment [2] (setting [5]) was 50 to 100% in each case. Also, the YFM result in experiment [3] (setting [6]) is “A (80–100)”.

As for `O=C(Nc1c(F)ccc(NC(=O)c2cc(NC(=O)[C@H]3[C@H](c4ccc(F)c(C(F)(F)F)c4)C3(Cl)Cl)ccc2Cl)c1F)C(=O)c1ccccc1` [F1298, 2-Chloro-5-((1R,3R)-2,2-dichloro-3-(4-fluoro-3-(trifluoromethyl)phenyl)cyclopropane-1-carboxamido)-N-(2,4-difluoro-3-(2-oxo-2-phenylacetamido)phenyl)benzamide], the pest or weed control at 50 µg/cm2 in experiment [1] (setting [4]) and in experiment [2] (setting [5]) was 50 to 100% in each case. The YFM result in experiment [3] (setting [6]) was “A (80–100)”.

For the compound `O=C(Nc1c(F)ccc(NC(=O)c2cc(NC(=O)[C@H]3[C@H](c4ccc(F)c(C(F)(F)F)c4)C3(Cl)Cl)ccc2Cl)c1F)c1ccco1` [F1300, N-(3-(2-Chloro-5-((1R,3R)-2,2-dichloro-3-(4-fluoro-3-(trifluoromethyl)phenyl)cyclopropane-1-carboxamido)benzamido)-2,6-difluorophenyl)furan-2-carboxamide], the pest or weed control at 50 µg/cm2 in experiment [1] (setting [4]) and in experiment [2] (setting [5]) was 50 to 100% each time. In addition, in experiment [3] (setting [6]), the YFM entry is “A (80–100)”.

Consider `CC(OC(F)(F)F)C(=O)Nc1c(F)ccc(NC(=O)c2cc(NC(=O)[C@H]3[C@H](c4ccc(F)c(C(F)(F)F)c4)C3(Cl)Cl)ccc2Cl)c1F` (stereo partly drawn) [F1771, 2-Chloro-5-((1R,3R)-2,2-dichloro-3-(4-fluoro-3-(trifluoromethyl)phenyl)cyclopropane-1-carboxamido)-N-(2,4-difluoro-3-(2-(trifluoromethoxy)propanamido)phenyl)benzamide], for which the pest or weed control at 50 µg/cm2 in experiment [1] (setting [7]) and in experiment [2] (setting [8]) was 50 to 100% in each case. Further, the YFM rating result in experiment [3] (Yellow Fever Mosquito) is “A (80–100)”.

In the case of `O=C(Nc1ccc(F)c(NC(=O)C(F)(F)C(F)(F)C(F)(F)F)c1F)c1cc(NC(=O)[C@H]2[C@H](c3ccc(F)c(C(F)(F)F)c3)C2(Cl)Cl)ccc1Cl` [F1450, 2-Chloro-5-((1R,3R)-2,2-dichloro-3-(4-fluoro-3-(trifluoromethyl)phenyl)cyclopropane-1-carboxamido)-N-(2,4-difluoro-3-(2,2,3,3,4,4,4-heptafluorobutanamido)phenyl)benzamide], the pest or weed control at 50 µg/cm2 in experiment [1] (setting [9]) and in experiment [2] (setting [10]) was 50 to 100% in each case. Further, the YFM entry in experiment [3] (setting [11]) is reported as “A (80–100)”.

As for `Nc1c(F)ccc(NC(=O)c2cc(NC(=O)[C@H]3[C@H](c4cc(C(F)(F)F)cc(C(F)(F)F)c4)C3(Cl)Cl)ccc2Cl)c1F` (relative stereo) [F1791, trans-N-(3-Amino-2,4-difluorophenyl)-5-(3-(3,5-bis(trifluoromethyl)phenyl)-2,2-dichlorocyclopropane-1-carboxamido)-2-chlorobenzamide], the pest or weed control at 50 µg/cm2 in experiment [1] (setting [7]) and in experiment [2] (setting [8]) was 50 to 100% in each case. Further, in experiment [3] (Yellow Fever Mosquito), the YFM rating result is on record as “A (80–100)”.

In the case of `C=Cc1cc(NC(=O)c2cc(NC(=O)[C@H]3[C@H](c4cc(Cl)cc(Cl)c4)C3(Cl)Cl)ccc2Cl)c(F)cc1F` (relative stereo) [F1315, trans-2-Chloro-5-(2,2-dichloro-3-(3,5-dichlorophenyl)cyclopropane-1-carboxamido)-N-(2,4-difluoro-5-vinylphenyl)benzamide], the pest or weed control at 50 µg/cm2 in experiment [1] (setting [4]) and in experiment [2] (setting [5]) was 50 to 100% in each case. Also, in experiment [3] (setting [6]), the YFM result is recorded as “A (80–100)”.

`CC(OCC(F)(F)F)C(=O)Nc1c(F)ccc(NC(=O)c2cc(NC(=O)[C@H]3[C@H](c4ccc(F)c(C(F)(F)F)c4)C3(Cl)Cl)ccc2Cl)c1F` (stereo partly drawn) [F1747, 2-Chloro-5-((1R,3R)-2,2-dichloro-3-(4-fluoro-3-(trifluoromethyl)phenyl)cyclopropane-1-carboxamido)-N-(2,4-difluoro-3-(2-(2,2,2-trifluoroethoxy)propanamido)phenyl)benzamide]: the pest or weed control at 50 µg/cm2 in experiment [1] (setting [9]) and in experiment [2] (setting [10]) was 50 to 100% each time. The YFM result in experiment [3] (setting [11]) is given as “A (80–100)”.

As to `O=C(NCC(F)(F)F)c1cc(NC(=O)C2C(c3cc(Br)cc(S(F)(F)(F)(F)F)c3)C2(Cl)Cl)ccc1Cl` (stereo not drawn) [F2009, cis-5-(3-(3-Bromo-5-(pentafluoro-λ^6-sulfanyl)phenyl)-2,2-dichiorocyclopropane-1-carboxamido)-2-chloro-N-(2,2,2-trifluoroethyl)benzamide], the pest or weed control at 50 µg/cm2 in experiment [1] (setting [7]) and in experiment [2] (setting [8]) was 50 to 100% each time. Moreover, the YFM rating result in experiment [3] (Yellow Fever Mosquito) is given as “A (80–100)”.

In the case of `O=C(Nc1ccc(F)cc1F)c1cc(NC(=O)[C@H]2[C@H](c3cc(F)c(F)c(Br)c3)C2(Cl)Cl)ccc1Cl` (relative stereo) [F1011, trans-5-(3-(3-Bromo-4,5-difluorophenyl)-2,2-dichlorocyclopropane-1-carboxamido)-2-chloro-N-(2,4-difluorophenyl)benzamide], the pest or weed control at 50 µg/cm2 in experiment [1] (setting [4]) and in experiment [2] (setting [5]) was 50 to 100% in each case. The YFM result in experiment [3] (setting [6]) is given as “A (80–100)”.

As to `CC(=O)NCCCCCNC(=O)c1cc(NC(=O)[C@H]2[C@H](c3cc(Cl)cc(Cl)c3)C2(Cl)Cl)ccc1Cl` (relative stereo) [F2069, trans-N-(5-Acetamidopentyl)-2-chloro-5-(2,2-dichloro-3-(3,5-dichlorophenyl)cyclopropane-1-carboxamido)benzamide], the pest or weed control at 50 µg/cm2 in experiment [1] (setting [7]) and in experiment [2] (setting [8]) was 50 to 100% in each case. Moreover, the YFM rating entry in experiment [3] (Yellow Fever Mosquito) is on record as “A (80–100)”.
